Test results published in ChEMBL document CHEMBL1155770, “New guinea pig model of Cryptococcal meningitis” (2007).
Values after ≈ are worked out from the molar mass of the structure shown. Active and inactive are the calls of the source. No cut-off for these calls is given here.

How the values were obtained:
[1] = system: Cryptococcus neoformans; assay: Antimicrobial activity against Cryptococcus neoformans USC1597 isolate after 72 hrs; format: functional
[2] = system: Cryptococcus neoformans; assay: Antimicrobial activity against 10^7 CFU Cryptococcus neoformans USC1597 isolate intracranially infected in Hartley guinea pig assessed as decrease in cerebrospinal fluid […] count per ml at 10 mg/kg, po BID administered 48 hrs postinfection for 13 days; format: functional
[3] = system: Cryptococcus neoformans; assay: Antimicrobial activity against 10^7 CFU Cryptococcus neoformans USC1597 isolate intracranially infected in Hartley guinea pig assessed as decrease in brain […] count at 20 mg/kg, po BID administered 48 hrs postinfection for 13 days; format: functional
[4] = system: Cryptococcus neoformans; assay: Antimicrobial activity against 9 x 10^6 CFU Cryptococcus neoformans USC1597 isolate intracranially infected in Hartley guinea pig assessed as kidney […] count per gram at 5 mg/kg, po BID administered 48 hrs postinfection for 13 days; format: functional
[5] = system: Cryptococcus neoformans; assay: Antimicrobial activity against 10^7 CFU Cryptococcus neoformans USC1597 isolate intracranially infected in Hartley guinea pig assessed as decrease in cerebrospinal fluid […] count at 20 mg/kg, po BID administered 48 hrs postinfection for 13 days; format: functional
[6] = system: Cryptococcus neoformans; assay: Antimicrobial activity against 9 x 10^6 CFU Cryptococcus neoformans USC1597 isolate intracranially infected in Hartley guinea pig assessed as cerebrospinal fluid […] count per ml at 5 mg/kg, po BID administered 48 hrs postinfection for 13 days; format: functional
[7] = system: Cryptococcus neoformans; assay: Antimicrobial activity against 10^7 CFU Cryptococcus neoformans USC1597 isolate intracranially infected in Hartley guinea pig assessed as decrease in brain […] count at 10 mg/kg, po BID administered 48 hrs postinfection for 13 days; format: functional
[8] = system: Cryptococcus neoformans; assay: Antimicrobial activity against 10^7 CFU Cryptococcus neoformans USC1597 isolate intracranially infected in Hartley guinea pig assessed as decrease in cerebrospinal fluid […] count at 5 mg/kg, po BID administered 48 hrs postinfection for 13 days; format: functional
[9] = system: Cryptococcus neoformans; assay: Antimicrobial activity against 9 x 10^6 CFU Cryptococcus neoformans USC1597 isolate intracranially infected in Hartley guinea pig assessed as brain […] count per gram at 5 mg/kg, po BID administered 48 hrs postinfection for 13 days; format: functional
[10] = system: Cryptococcus neoformans; assay: Antimicrobial activity against 10^7 CFU Cryptococcus neoformans USC1597 isolate intracranially infected in Hartley guinea pig assessed as decrease in brain […] count at 5 mg/kg, po BID administered 48 hrs postinfection for 13 days; format: functional
[11] = system: Cryptococcus neoformans; assay: Antimicrobial activity against 9 x 10^6 CFU Cryptococcus neoformans USC1597 isolate intracranially infected in Hartley guinea pig assessed as cerebrospinal fluid […] count per ml at 10 mg/kg, po BID administered 48 hrs postinfection for 13 days; format: functional
[12] = system: Cryptococcus neoformans; assay: Antimicrobial activity against 9 x 10^6 CFU Cryptococcus neoformans USC1597 isolate intracranially infected in Hartley guinea pig assessed as brain […] count per gram at 10 mg/kg, po BID administered 48 hrs postinfection for 13 days; format: functional
[13] = system: Cryptococcus neoformans; assay: Antimicrobial activity against 9 x 10^6 CFU Cryptococcus neoformans USC1597 isolate intracranially infected in Hartley guinea pig assessed as kidney […] count per gram at 10 mg/kg, po BID administered 48 hrs postinfection for 13 days; format: functional
[14] = system: Cryptococcus neoformans; assay: Antimicrobial activity against 10^7 CFU Cryptococcus neoformans USC1597 isolate intracranially infected in Hartley guinea pig assessed as decrease in kidney […] count at 10 mg/kg, po BID administered 48 hrs postinfection for 13 days; format: functional, organism-based; parameters: dose 10 mg/kg; details: […]

Row | Structure (SMILES) | MIC [1] [µg/mL] | log10cfu [2] | log10cfu [3] | log10cfu [4] | log10cfu [5] | log10cfu [6] | log10cfu [7] | log10cfu [8] | log10cfu [9] | log10cfu [10] | log10cfu [11] | log10cfu [12] | log10cfu [13] | Activity [14]
1 | C[C@@H]1[C@H](O)[C@@H](C)/C=C/C=C/C=C/C=C/C=C/C=C/C=C/[C@H](O[C@@H]2O[C@H](C)[C@@H](O)[C@H](N)[C@@H]2O)C[C@@H]2O[C@](O)(C[C@@H](O)C[C@@H](O)[C@H](O)CC[C@@H](O)C[C@@H](O)CC(=O)O[C@H]1C)C[C@H](O)[C@H]2C(=O)O [AMPHOTERICIN B] | 0.25 (≈ 0.271 µM) | – | – | – | – | – | – | – | – | – | – | – | – | –
2 | C[C@@H](c1ncncc1F)[C@](O)(Cn1cncn1)c1ccc(F)cc1F [VORICONAZOLE] | 0.006 (≈ 0.0172 µM) | 1.6 | 1.5 | 3.01 | 1 | 4.11 | 1.5 | 0.7 | 5.99 | 1 | – | – | – | –
3 | OC(Cn1cncn1)(Cn1cncn1)c1ccc(F)cc1F [FLUCONAZOLE] | 1 (≈ 3.27 µM) | 1 | – | – | – | – | 2 | – | – | – | 3.18 | 5.25 | 2.43 | Active
